Where no end group is shown, it is not given here.
Assays:
sheep red blood cells = experiment: Hemolytic assay; type: cell-based; settings: for % Hemolysis, Exp.1: replicate Exp.1; for % Hemolysis, Exp.2: replicate Exp.2; for % Hemolysis, Exp.3: replicate Exp.3; for Hemolytic activity (in words): sheep erythrocytes, concentrations as high as 150 μM
Experimental: A hemolytic assay was carried out according to the previously described method using commercially sourced sheep red blood cells (Professional Nanomed Company Limited, Bangkok, Thailand). One hundred microliters of a 2% sheep red blood cell suspension prepared in phosphate-buffered saline (PBS) pH 7.4. was incubated for 1 h at 37 °C with 100 μL of the studied peptides (final concentration of 150 µM). After centrifugation at 1000× g for 5 min, 100 μL of supernatant was transferred to new 96-well plates, and the release of hemoglobin was monitored, measuring an optical density (OD) at 405 nm using a BioTek Synergy HT microplate reader. Red blood cells treated with PBS pH 7.4 were used as a negative control, while those treated with 1% Triton X-100 were used as a positive control. The percent hemolysis was calculated as follows:(1) % Hemolysis=OD405 nm of the test peptide−OD405 nm of negative control/OD405 nm of positive control−OD405 nm of negative control × 100

P. aeruginosa biofilm = settings: at 4 μM; cited from earlier work
From the text: We next determined the anti-biofilm potentials of the truncated IsCT analogs against biofilms formation of P. aeruginosa. […] Antibacterials with growth-inhibitory activity may accelerate the evolutionary pressure and ultimately lead to troublesome antibiotic resistance.

[1] = system: P. aeruginosa PAO1 biofilms; experiment: Biofilm susceptibility assay (crystal violet); type: cell-based, Pseudomonas aeruginosa; settings: 150 μM, 24 h, 37 °C; for Decrease in P. aeruginosa biofilm biomass: 10^6 CFU/mL, OD 550 nm, compared with untreated control
Experimental: The effect of the truncated IsCT analogs on biofilms of P. aeruginosa was assessed using a method that was described previously. Briefly, 100 μL of the test peptides (final concentration, 150 μM) was added to each well of a 96-well microtiter plate (Nunc^TM, Roskilde, Denmark). Then, an aliquot of P. aeruginosa PAO1 culture was added to each well to obtain a final concentration of 10^6 CFU/mL. The bacterial culture alone was included as an untreated control. Following a 24-h incubation at 37 °C, unattached planktonic cells were discarded, and the wells were carefully washed twice with PBS with a pH of 7.4. Thereafter, biofilm biomasses were quantified by 0.1% crystal violet staining. After excess stains were discarded, the wells were washed with PBS pH 7.4 and left to air dry for 2 h at 37 °C. The biofilm biomass was subsequently dissolved by the addition of 30% acetic acid, and the plates were spectrophotometrically read at 550 nm using a BioTek Synergy HT microplate reader.

[2] = sheep red blood cells, 1 h, 37 °C, peptides 150 μM (Triton X-100 1%)

Substance | % Hemolysis (sheep red blood cells; 2% sheep red blood cells in PBS pH 7.4, 1 h, 37 °C, peptides 150 μM (Triton X-100 1%, positive control), OD 405 nm, mean ± SEM of independent experiments) | % Hemolysis, Mean (sheep red blood cells; sheep red blood cells, 1 h, 37 °C, peptides 150 μM (Triton X-100 1%), mean of 3 experiments (supplement)) | % Hemolysis, Exp.1 (sheep red blood cells; [2]) | % Hemolysis, Exp.2 (sheep red blood cells; [2]) | % Hemolysis, Exp.3 (sheep red blood cells; [2]) | Inhibition of P. aeruginosa biofilm production (P. aeruginosa biofilm) | Anti-biofilm activity (in words) [1] | Hemolytic activity (in words) (sheep red blood cells) | Decrease in P. aeruginosa biofilm biomass [1]
Triton X-100 [reference compound] | 100.00 ± 0.00% | 100.00% | 100.00% | 100.00% | 100.00% | – | – | – | –
β-defensin 2: an AMP, human beta-defensin 2 (GIGDPVTCLKSGAICHPVFCPRRYKQIGTCGLPGTKCCKKP; ends and bridges not checked; cysteine pairing not given here; UniProt O15263 24-64, looked up) | – | – | – | – | – | 40% | – | – | –
ILGKIWIKSLF [IsCT-Δ7-8] | – | – | 0.25% | 2.48% | 3.66% | – | less pronounced | decreased hemolytic activity | –
ILGKIKSLF [IsCT-Δ6-9] | – | – | 0.38% | 0.00% | 1.03% | – | – | decreased hemolytic activity | 26.45%
ILGKIWKSLF [IsCT-Δ7-9] | – | – | 0.18% | 0.00% | 1.13% | – | less pronounced | decreased hemolytic activity | –
ILGKIGIKSLF [IsCT-Δ6-7] | – | – | 0.00% | 0.0473% | 2.44% | – | – | decreased hemolytic activity | 28.27%
